Laboratory results taken from US20230000870A1, “METHODS OF TREATING CANCER IN BIOMARKER-IDENTIFIED PATIENTS WITH INHIBITORS OF CYCLIN-DEPENDENT KINASE 7 (CDK7)” (Syros Pharmaceuticals, Inc., priority 2019, published 2023).
pIC50: −log10 of the molar value.

What was measured:
CDK2/Cyclin E1 complex = CDK2/Cyclin E1 complex (Homo sapiens, UniProt P24941); assay: CDK2 kinase inhibition assay (Caliper/LabChip EZ Reader); format: biochemical; settings: CDK2/Cyclin E1 0.5 nM, ATP 2 mM, 35 min at 27° C.
Procedure, shortened: (§1)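 Caliper/LabChip mobility-shift kinase assays at 27° C. CDK9/Cyclin T1 8 nM with 2 μM 5-FAM-CDK9tide, 10 mM MgCl2, 15 min; CDK12/Cyclin K 50 nM with 5-FAM-CDK9tide 2 μM, 2 mM MgCl2, 3 hr; CDK2/Cyclin E1 0.5 nM with 5-FAM-CDK7tide 2 μM, 2 mM MgCl2, 35 min; CDK7 35 min.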

[1] = biological target: CDK7/Cyclin H/MAT1 complex (Homo sapiens, UniProt P50613); assay: CDK7 kinase inhibition assay (Caliper/LabChip EZ Reader); format: biochemical; settings: CDK7/Cyclin H/MAT1 6 nM, ATP 2 mM, 35 min at 27° C.
Sequence of CDK7/Cyclin H/MAT1 complex (P50613 whole entry): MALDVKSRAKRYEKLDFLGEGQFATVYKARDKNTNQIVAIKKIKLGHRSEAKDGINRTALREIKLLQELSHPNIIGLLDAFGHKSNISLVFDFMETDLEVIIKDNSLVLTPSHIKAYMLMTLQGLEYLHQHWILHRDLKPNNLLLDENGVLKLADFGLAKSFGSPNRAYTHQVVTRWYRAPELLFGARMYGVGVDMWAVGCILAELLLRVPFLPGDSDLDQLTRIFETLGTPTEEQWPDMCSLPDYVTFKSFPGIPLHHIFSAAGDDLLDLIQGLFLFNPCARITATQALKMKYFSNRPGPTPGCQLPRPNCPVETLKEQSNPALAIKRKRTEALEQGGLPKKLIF
Sequence of CDK7/Cyclin H/MAT1 complex (P51946 whole entry partner): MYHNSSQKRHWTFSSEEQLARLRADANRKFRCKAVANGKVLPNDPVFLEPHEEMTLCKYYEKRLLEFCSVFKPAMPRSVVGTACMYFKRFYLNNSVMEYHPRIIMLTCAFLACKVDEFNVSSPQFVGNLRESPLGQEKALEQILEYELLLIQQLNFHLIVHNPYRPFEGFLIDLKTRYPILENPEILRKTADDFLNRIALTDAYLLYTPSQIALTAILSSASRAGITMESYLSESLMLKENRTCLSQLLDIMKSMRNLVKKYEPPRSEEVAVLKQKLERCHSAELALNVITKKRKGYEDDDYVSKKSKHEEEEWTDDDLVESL
Sequence of CDK7/Cyclin H/MAT1 complex (P51948 whole entry partner): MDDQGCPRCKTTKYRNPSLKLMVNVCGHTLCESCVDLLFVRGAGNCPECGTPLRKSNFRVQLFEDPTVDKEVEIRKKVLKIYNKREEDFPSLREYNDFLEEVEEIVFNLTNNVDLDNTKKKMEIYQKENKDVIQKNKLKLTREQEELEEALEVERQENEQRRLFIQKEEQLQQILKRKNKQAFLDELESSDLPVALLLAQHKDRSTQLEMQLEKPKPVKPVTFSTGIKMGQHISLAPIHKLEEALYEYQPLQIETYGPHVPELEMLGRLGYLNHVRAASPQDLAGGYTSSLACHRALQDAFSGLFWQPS
Procedure, shortened: as §1

CDK9/Cyclin T1 complex = CDK9/Cyclin T1 complex (Homo sapiens, UniProt P50750); assay: CDK9 kinase inhibition assay (Caliper/LabChip EZ Reader); format: biochemical; settings: CDK9/Cyclin T1 8 nM, ATP 2 mM, 15 min at 27° C.
Sequence of CDK9/Cyclin T1 complex (P50750 whole entry): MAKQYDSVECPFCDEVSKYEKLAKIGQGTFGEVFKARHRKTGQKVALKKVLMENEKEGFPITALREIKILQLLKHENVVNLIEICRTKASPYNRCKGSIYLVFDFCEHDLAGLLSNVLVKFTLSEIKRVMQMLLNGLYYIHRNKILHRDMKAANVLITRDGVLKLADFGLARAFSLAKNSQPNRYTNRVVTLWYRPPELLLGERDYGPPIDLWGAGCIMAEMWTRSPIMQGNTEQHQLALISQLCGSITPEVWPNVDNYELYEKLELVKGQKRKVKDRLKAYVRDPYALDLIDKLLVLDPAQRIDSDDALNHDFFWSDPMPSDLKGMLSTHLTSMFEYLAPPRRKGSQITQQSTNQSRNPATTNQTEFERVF
Sequence of CDK9/Cyclin T1 complex (O60563 whole entry partner): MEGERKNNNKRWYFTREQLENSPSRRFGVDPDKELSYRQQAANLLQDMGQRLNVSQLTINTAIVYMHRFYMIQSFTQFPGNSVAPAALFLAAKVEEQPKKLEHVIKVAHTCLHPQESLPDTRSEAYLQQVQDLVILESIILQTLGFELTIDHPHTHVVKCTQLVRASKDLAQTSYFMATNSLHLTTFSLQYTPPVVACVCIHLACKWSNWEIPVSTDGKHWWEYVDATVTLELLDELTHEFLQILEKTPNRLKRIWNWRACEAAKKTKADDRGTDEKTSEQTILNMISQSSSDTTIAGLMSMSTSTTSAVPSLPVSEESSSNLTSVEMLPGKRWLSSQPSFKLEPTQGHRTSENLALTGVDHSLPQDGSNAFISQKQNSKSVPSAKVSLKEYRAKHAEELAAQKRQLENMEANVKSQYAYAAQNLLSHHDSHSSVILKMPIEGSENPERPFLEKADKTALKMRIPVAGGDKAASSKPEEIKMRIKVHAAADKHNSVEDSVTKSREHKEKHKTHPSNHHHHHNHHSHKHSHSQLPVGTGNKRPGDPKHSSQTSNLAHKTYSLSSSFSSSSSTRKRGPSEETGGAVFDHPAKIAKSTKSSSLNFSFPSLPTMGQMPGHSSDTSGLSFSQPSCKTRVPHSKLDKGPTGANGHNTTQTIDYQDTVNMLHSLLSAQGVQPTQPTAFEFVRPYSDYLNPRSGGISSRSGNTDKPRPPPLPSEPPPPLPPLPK
Procedure, shortened: as §1

[2] = biological target: T1, CDK12 (aa686-1082)/Cyclin K complex (Homo sapiens, UniProt Q9NYV4); assay: CDK12 kinase inhibition assay (Caliper/LabChip EZ Reader); format: biochemical; settings: CDK12 (aa686-1082)/Cyclin K 50 nM, ATP 2 mM, 3 hr at 27° C.
T1 construct: CDK12 (aa686-1082)/Cyclin K complex
T1 sequence (Q9NYV4 686-1082): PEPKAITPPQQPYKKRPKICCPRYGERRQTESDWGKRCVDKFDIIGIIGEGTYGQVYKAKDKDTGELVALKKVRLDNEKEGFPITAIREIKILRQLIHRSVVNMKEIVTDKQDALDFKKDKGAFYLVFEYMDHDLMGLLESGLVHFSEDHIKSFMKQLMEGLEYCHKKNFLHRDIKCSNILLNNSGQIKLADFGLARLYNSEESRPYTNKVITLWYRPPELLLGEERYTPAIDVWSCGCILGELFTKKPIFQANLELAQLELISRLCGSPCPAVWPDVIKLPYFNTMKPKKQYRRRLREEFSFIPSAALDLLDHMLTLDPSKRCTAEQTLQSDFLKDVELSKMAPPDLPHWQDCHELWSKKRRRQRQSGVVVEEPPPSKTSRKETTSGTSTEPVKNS
T1 sequence (O75909 whole entry partner, the tested form may be a part): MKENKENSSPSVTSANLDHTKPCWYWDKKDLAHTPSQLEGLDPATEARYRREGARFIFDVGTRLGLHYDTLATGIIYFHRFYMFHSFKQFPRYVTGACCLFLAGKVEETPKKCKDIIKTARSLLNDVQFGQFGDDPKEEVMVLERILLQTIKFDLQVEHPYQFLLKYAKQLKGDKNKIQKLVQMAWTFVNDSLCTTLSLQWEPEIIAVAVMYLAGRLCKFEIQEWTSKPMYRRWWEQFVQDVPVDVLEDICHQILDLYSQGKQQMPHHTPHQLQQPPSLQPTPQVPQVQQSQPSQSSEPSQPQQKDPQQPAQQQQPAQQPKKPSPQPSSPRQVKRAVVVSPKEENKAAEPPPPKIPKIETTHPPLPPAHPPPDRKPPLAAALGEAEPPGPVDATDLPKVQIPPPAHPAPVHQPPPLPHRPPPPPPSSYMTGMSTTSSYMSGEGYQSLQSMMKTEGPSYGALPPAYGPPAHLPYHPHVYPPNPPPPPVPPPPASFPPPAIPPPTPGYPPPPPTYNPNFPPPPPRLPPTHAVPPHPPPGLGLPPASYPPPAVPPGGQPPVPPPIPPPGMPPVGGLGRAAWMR
Procedure, shortened: as §1

HCC70 cells = assay: Inhibition of proliferation of HCC70 cells (CyQUANT Direct, 72 hour); format: cell-based, human; settings: read-out: Inhibition of Proliferation of HCC70 Cells (calculated IC50)
Method: HCC70 cells: HCC70 cells are a cell line derived from human triple negative breast cancer. Representative compounds of the invention were tested at different concentrations (from 4 μM to […]; 0.5 log serial dilutions) for their ability to inhibit the proliferation of HCC70 cells. Known CDK inhibitors dinaciclib or N-((1S,3R)-3-((5-chloro-4-(1H-indol-3-yl) pyrimidin-2-yl)amino)cyclohexyl)-5-((E)-4-(dimethylamino)but-2-enamido)picolinamide and triptolide were used as positive controls. Cells were grown in ATCC-formulated RPMI-1640 Medium (ATCC 30-2001)+10% FBS. The cells were cultured at 37° C. in a humidified chamber in the presence of 5% CO2. Proliferation assays were conducted over a 72 hour time period. CyQUANT® Direct Cell Proliferation Assay (Life Technologies, Chicago, Ill. USA) was used to assess the anti-proliferative effects of the compounds following manufacturer's directions and utilizing the reagents supplied with the CyQUANT® Direct Cell kit.

A673 cells = assay: Inhibition of proliferation of A673 cells (CyQUANT, 72 hour); format: cell-based, human; settings: read-out: Inhibition of Proliferation of A673 Cells (calculated IC50)
Procedure, shortened: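 Human Ewing's sarcoma A673 cells in DMEM + 10% FBS + 1 mM sodium pyruvate, 37 °C, 5% CO2. Compounds in 0.5-log serial dilutions, stated range 4 μM to […], for 72 h. Anti-proliferative effect read with CyQUANT per kit directions.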

Row | Compound | pIC50 (CDK2/Cyclin E1 complex) | pIC50 [1] | pIC50 (CDK9/Cyclin T1 complex) | pIC50 [2] | pIC50 (HCC70 cells) | pIC50 (A673 cells)
1 | CNC(=O)c1cccc2c(-c3nc(NC4CCCNC4)ncc3C(F)(F)F)cn(COC)c12 (stereo not drawn) [Compound 304] | ≤ 5.30 | ≤ 5.30 | ≤ 5.30 | ≤ 5.30 | 5.30 to 6.00 | 
2 | CCc1cnc(NC2CCCNC2)nc1-c1c[nH]c2c(S(C)(=O)=O)cccc12 (stereo not drawn) [Compound 269] |  |  |  |  | 6.00 to 7.00 | 
3 | Fc1cncc(-c2ccc3c(-c4nc(NC5CCCNC5)ncc4C(F)(F)F)c[nH]c3c2)c1 (stereo not drawn) [Compound 335] |  |  |  |  | 6.00 to 7.00 | 
4 | OCCc1cccc(-c2ccc3c(-c4nc(NC5CCCNC5)ncc4C(F)(F)F)c[nH]c3c2)c1 (stereo not drawn) [Compound 324] |  | 6.70 to 7.70 |  | 5.30 to 6.70 | 6.00 to 7.00 | 
5 | CCOc1ccccc1-c1ccc2c(-c3nc(NC4CCCNC4)ncc3C(F)(F)F)c[nH]c2c1 (stereo not drawn) [Compound 327] |  | 6.70 to 7.70 |  | 5.30 to 6.70 | 6.00 to 7.00 | 
6 | FC(F)(F)c1cc2[nH]cc(-c3ccc4c(-c5nc(N[C@H]6CCCNC6)ncc5C(F)(F)F)c[nH]c4c3)c2cn1 [Compound 319] |  | 6.70 to 7.70 |  | 5.30 to 6.70 | 5.30 to 6.00 | 
7 | Nc1nc2c(-c3ccc4c(-c5nc(NC6CCCNC6)ncc5C(F)(F)F)c[nH]c4c3)cccc2s1 (stereo not drawn) [Compound 312] |  | 6.70 to 7.70 |  | 5.30 to 6.70 | 6.00 to 7.00 | 
8 | Cn1ncc2ccc(-c3ccc4c(-c5nc(NC6CCCNC6)ncc5C(F)(F)F)c[nH]c4c3)cc21 (stereo not drawn) [Compound 337] |  | 6.70 to 7.70 |  | 5.30 to 6.70 | 6.00 to 7.00 | 
9 | Cn1cc(-c2ccc3c(-c4nc(N[C@H]5CCCNC5)ncc4C(F)(F)F)c[nH]c3c2)c2cnc(C(F)(F)F)cc21 [Compound 320] |  | 6.70 to 7.70 |  | 5.30 to 6.70 | 5.30 to 6.00 | 
10 | CC1CNCC(Nc2ncc(Cl)c(-c3c[nH]c4ccccc34)n2)C1 (stereo not drawn) [Compound 182] | ≤ 5.30 | 6.70 to 7.70 | 5.30 to 6.70 | 5.30 to 6.70 |  | 6.70 to 7.70
11 | CCOP(=O)(OCC)c1cccc2c(-c3nc(NC4CCCNC4)ncc3C(F)(F)F)c[nH]c12 (stereo not drawn) [Compound 168] | ≤ 5.30 | 5.30 to 6.70 | ≤ 5.30 | ≤ 5.30 |  | 5.30 to 6.70
12 | CC1(C)CCNC[C@@H]1Nc1ncc(C(F)(F)F)c(-c2c[nH]c3ccccc23)n1 [Compound 209] | ≤ 5.30 | 5.30 to 6.70 | ≤ 5.30 | ≤ 5.30 |  | 6.70 to 7.70
13 | CC(C)c1cnc(N[C@H]2CCCNC2)nc1-c1n[nH]c2nc(C#N)ccc12 [Compound 276] | ≤ 5.30 | 6.70 to 7.70 | ≤ 5.30 | ≤ 5.30 |  | 5.30 to 6.70
14 | Cc1[nH]c2ccccc2c1-c1nc(NC2CCCNC2)ncc1Cl (stereo not drawn) [Compound 106] | ≤ 5.30 | 6.70 to 7.70 | 5.30 to 6.70 | 5.30 to 6.70 |  | 6.70 to 7.70
15 | FC(F)(F)c1cnc(N[C@H]2CCCNC2)nc1-c1c[nH]c2cc(-c3ccc4ccncc4c3)ccc12 [Compound 325] |  | 6.70 to 7.70 |  | 5.30 to 6.70 | 6.00 to 7.00 | 

Further lines, with some results ahead:

Row | pIC50 (CDK2/Cyclin E1 complex) | pIC50 [1] | pIC50 (CDK9/Cyclin T1 complex) | pIC50 [2] | Compound | pIC50 (HCC70 cells) | pIC50 (A673 cells)
16 | ≤ 5.30 | 6.70 to 7.70 | 5.30 to 6.70 | 5.30 to 6.70 | N#Cc1ccc2c(-c3nc(N[C@H]4CCCNC4)ncc3SC(F)F)c[nH]c2c1 [Compound 361] | 6.00 to 7.00 | 
17 | 5.30 to 6.70 | > 7.70 | 5.30 to 6.70 | 5.30 to 6.70 | CNC(=O)c1ccc2c(-c3nc(NC4CCCNC4)ncc3C(F)(F)F)c[nH]c2n1 (stereo not drawn) [Compound 297] | > 7.00 | 
18 | 5.30 to 6.70 | > 7.70 | ≤ 5.30 | 5.30 to 6.70 | CC1(O)CCN(C(=O)c2ccc3c(-c4nc(N[C@H]5CCCNC5)ncc4C(F)(F)F)c[nH]c3c2)CC1 [Compound 282] | 6.00 to 7.00 | 
19 | 5.30 to 6.70 | > 7.70 | 5.30 to 6.70 | 5.30 to 6.70 | Cc1c(-c2ccc3c(-c4nc(NC5CCCNC5)ncc4C(F)(F)F)c[nH]c3c2)c[nH]c(=O)c1C#N (stereo not drawn) [Compound 311] | 5.30 to 6.00 | 
20 | 5.30 to 6.70 | > 7.70 | 5.30 to 6.70 | 5.30 to 6.70 | CC1(C)CNCC(Nc2ncc(Cl)c(-c3c[nH]c4c(S(C)(=O)=O)c(C#N)ccc34)n2)C1 (stereo not drawn) [Compound 382] | > 7.00 | 
21 | 5.30 to 6.70 | > 7.70 | ≤ 5.30 | 5.30 to 6.70 | CP(C)(=O)c1cccc2c(-c3nc(NC4CCCNC4)ncc3C(F)(F)F)c[nH]c12 (stereo not drawn) [Compound 353] | > 7.00 | 
22 |  | 6.70 to 7.70 |  | 5.30 to 6.70 | NS(=O)(=O)c1cccc(-c2ccc3c(-c4nc(NC5CCCNC5)ncc4C(F)(F)F)c[nH]c3c2)c1 (stereo not drawn) [Compound 326] | 6.00 to 7.00 | 
23 | 5.30 to 6.70 | 6.70 to 7.70 | 5.30 to 6.70 | 5.30 to 6.70 | CC(=O)NCc1cccc(-c2ccc3c(-c4nc(NC5CCCNC5)ncc4C(F)(F)F)c[nH]c3c2)c1 (stereo not drawn) [Compound 338] | 6.00 to 7.00 | 
24 | 5.30 to 6.70 | > 7.70 | 5.30 to 6.70 | 5.30 to 6.70 | FC(F)(F)c1cnc(NC2CCCNC2)nc1-c1c[nH]c2cc(-c3cnccn3)ccc12 (stereo not drawn) [Compound 328] | > 7.00 | 
25 |  | > 7.70 |  | 5.30 to 6.70 | Nc1ncc2cccc(-c3ccc4c(-c5nc(NC6CCCNC6)ncc5C(F)(F)F)c[nH]c4c3)c2n1 (stereo not drawn) [Compound 322] | 6.00 to 7.00 | 
26 | ≤ 5.30 | 6.70 to 7.70 | ≤ 5.30 | 5.30 to 6.70 | CP(C)(=O)c1ccc2c(-c3nc(NC4CCCNC4)ncc3C(F)(F)F)c[nH]c2c1 (stereo not drawn) [Compound 354] | 5.30 to 6.00 | 
27 | ≤ 5.30 | > 7.70 | 5.30 to 6.70 | 5.30 to 6.70 | N#Cc1ccc2c(-c3nc(N[C@@H]4CCC5(CCC5)NC4)ncc3C(F)(F)F)c[nH]c2c1 [Compound 377] | 6.00 to 7.00 | 
28 | 5.30 to 6.70 | > 7.70 | 5.30 to 6.70 | 5.30 to 6.70 | Cc1ccncc1-c1ccc2c(-c3nc(NC4CCCNC4)ncc3C(F)(F)F)c[nH]c2c1 (stereo not drawn) [Compound 336] | > 7.00 | 
29 | 5.30 to 6.70 | > 7.70 | 5.30 to 6.70 | 5.30 to 6.70 | N#CC1CCN(C(=O)c2ccc3c(-c4nc(NC5CCCNC5)ncc4C(F)(F)F)c[nH]c3c2)C1 (stereo not drawn) [Compound 293] | 6.00 to 7.00 | 
30 |  | 6.70 to 7.70 |  | 5.30 to 6.70 | N#Cc1cc(-c2ccc3c(-c4nc(NC5CCCNC5)ncc4C(F)(F)F)c[nH]c3c2)ccc1O (stereo not drawn) [Compound 315] | 5.30 to 6.00 | 
31 |  | 6.70 to 7.70 |  | 5.30 to 6.70 | NS(=O)(=O)c1ccc(-c2ccc3c(-c4nc(N[C@H]5CCCNC5)ncc4C(F)(F)F)c[nH]c3c2)cc1 [Compound 331] | 6.00 to 7.00 | 
32 |  | 6.70 to 7.70 |  | 5.30 to 6.70 | FC(F)(F)c1cnc(N[C@H]2CCCNC2)nc1-c1c[nH]c2cc(/C=C/c3ccccc3)ccc12 [Compound 317] | 5.30 to 6.00 | 
33 | 5.30 to 6.70 | > 7.70 | 5.30 to 6.70 | 5.30 to 6.70 | Cc1n[nH]cc1-c1ccc2[nH]cc(-c3nc(NC4CCCNC4)ncc3C(F)(F)F)c2c1 (stereo not drawn) [Compound 229] |  | > 7.70
34 | 5.30 to 6.70 | > 7.70 | ≤ 5.30 | 5.30 to 6.70 | Cc1nc(-c2ccc3c(-c4nc(NC5CCCNC5)ncc4C(F)(F)F)c[nH]c3c2)nn1C (stereo not drawn) [Compound 245] |  | 6.70 to 7.70
